Legend:
[1] = tested on: confluent tendon fibroblasts; assay: Cytotoxicity test of NDGA and its oxidation products, CYQUANT viable cell number; type: cell-based, calf
Description: (§1) Cell cultures: Digital extensor tendons were excised fresh from new born calves euthanized at a local abattoir and held in Dulbecco's Phosphate Buffered Saline during dissection and preparation for culture. Tendons were minced, weighed, and then digested with 0.1% w/v testicular hyaluronidase in 0.15 M NaCl, 0.1 M NaH2PO4, pH 7.0 (5 ml/g wet tissue weight) at 37° C. for 45 minutes. The hyaluronidase wash was decanted and the tissue was next digested with 5 mg/g tissue of Pronase E and 5 mg/g tissue of collagenase in 4% bovine serum albumen in DMEM/Ham F12 medium at 37° C. overnight. Cells were isolated from the tissue residue and washed with PBS. Cells were dispersed in DMEM/Ham F12 medium, counted, and plated on 24-well culture plates. Cells were cultured in DMEM/Ham F12 containing 10% FBS unless otherwise noted.
Cytotoxicity tests: The potential toxicity of NDGA, its reaction products, and the NDGA cross-linked fibers was determined using confluent tendon fibroblasts. NDGA was tested by dissolving NDGA in DMSO, then directly diluting in the medium containing 10% FBS to the desired final concentrations. […] Fibroblasts were cultured in the presence of NDGA or its oxidation products for 24 hours, and then the number of viable cells was measured with the CYQUANT® Cell Proliferation Assay Kit (Molecular Probes).

[2] = tested on: primary tendon fibroblast cultures; assay: Fibroblast replication after single NDGA exposure; type: cell-based, calf
Description: as §1
Effect of NDGA on fibroblast replication. To determine whether NDGA or oxidation products derived from the cross-linking reaction influenced cell replication, primary tendon fibroblast cultures were treated with a single exposure at the start of culture with concentrations of NDGA from […]. Fibroblasts were subsequently cultured for 1, 2, and 4 weeks. At each time point, the number of viable cells in each treatment group was determined. The lower NDGA concentrations, […], had no effect on cell replication (FIG. 15).

[3] = NDGA quantitation in culture medium by capillary zone electrophoresis; type: physicochemical; set-up: Initial NDGA remaining in medium: dose or concentration left out as unconfirmed
Description: NDGA Quantitation: The amount of NDGA in the buffers, eluents, and medium was determined by capillary zone electrophoresis on a Dionex CES. A sodium borate buffer (10 mM sodium borate, 50 mM boric acid, pH 8.0) was chosen for electrophoresis because it was known that borate efficiently complexes with catechols and increases absorptivity (Waite et al., Methods. Enzymol. 107:397-413, 1984). Samples were diluted in electrophoresis buffer, loaded by electrophoresis (5000 V for 5 seconds) onto a […] inner diameter×80 cm long hollow glass capillary, and electrophoresed at 20 kV. NDGA was detected by absorbance at 280 nm. The amount of NDGA in the experimental samples was calculated from the peak area following calibration of the NDGA standards dissolved directly in capillary zone electrophoresis (CZE) buffer. Based on capillary zone electrophoretic analysis of NDGA-containing medium, NDGA disappears from the medium with time in culture, even in the absence of cells (FIGS. 13A and 13B). NDGA was dissolved in DMSO to 10 mM and then diluted 100-fold into the medium. For the zero time point, the medium containing NDGA was diluted 3-fold with CZE buffer and electrophoresed immediately. For the 24 hour time point, the medium was incubated at 37° C. in a cell culture incubator before diluting 3-fold and electrophoresing. […] The fate of the NDGA is unclear. Its disappearance may involve oxidation of the catechols to quinones, since the medium developed a brown pigment similar to that formed from chemically oxidized NDGA. In the medium containing […] NDGA, less than 10% of the initial NDGA remained after 24 hours, decreasing the NDGA concentration to below […] (FIGS. 13A and 13B).

[4] = medium containing, after 24 hours

CC(Cc1ccc(O)c(O)c1)C(C)Cc1ccc(O)c(O)c1 (centres unmarked) [NDGA, Nordihydroguaiaretic acid]
Reduction in viable cells ([1]; 1000 mM NDGA, after 24 hr): 80%
Effect on cell viability over that of DMSO alone ([1]; NDGA at 1, 10, and 100 mM, 24 hours of exposure): little effect
Effect on cell replication ([2]; 1 and 10 mM NDGA, culture 1, 2, 4 weeks): no effect
Effect on cell replication ([2]; highest NDGA concentration): toxic to the cells
Effect on cell replication ([2]; one hundred millimolar NDGA, after first week rate similar to control): temporary delay in replication
NDGA vanished from medium ([3]; 10 mM in DMSO diluted 100-fold into medium, 37° C., no cells, by 24 hours): over 95%
Initial NDGA remaining in medium [3, 4]: less than 10%
NDGA concentration in medium [3, 4]: below 100 mM

Source: US6821530B2, “Polymer composite compositions” (Shriners Hospitals for Children, priority 2000, dated 2004)
